The text below walks through data of patent US20100035251A1, “BioMarkers for the Progression of Alzheimer's Disease” (priority 2006, published 2010).

This test deals with LRRK2 protein (SEQ ID NO:2) (Homo sapiens, UniProt Q5S007). Put plainly: Drug Pull-Down experiments. Type of test: binding. As to the method: The pharmacological properties of the LRRK2 modulating agents can be evaluated, for example, in Drug Pull-Down experiments. The above-mentioned heterocyclic compounds can show activity in Drug Pull-Down experiments at concentrations below 20 μM.
Sequence of LRRK2 protein (SEQ ID NO:2) (Q5S007 whole entry R50H/L212S): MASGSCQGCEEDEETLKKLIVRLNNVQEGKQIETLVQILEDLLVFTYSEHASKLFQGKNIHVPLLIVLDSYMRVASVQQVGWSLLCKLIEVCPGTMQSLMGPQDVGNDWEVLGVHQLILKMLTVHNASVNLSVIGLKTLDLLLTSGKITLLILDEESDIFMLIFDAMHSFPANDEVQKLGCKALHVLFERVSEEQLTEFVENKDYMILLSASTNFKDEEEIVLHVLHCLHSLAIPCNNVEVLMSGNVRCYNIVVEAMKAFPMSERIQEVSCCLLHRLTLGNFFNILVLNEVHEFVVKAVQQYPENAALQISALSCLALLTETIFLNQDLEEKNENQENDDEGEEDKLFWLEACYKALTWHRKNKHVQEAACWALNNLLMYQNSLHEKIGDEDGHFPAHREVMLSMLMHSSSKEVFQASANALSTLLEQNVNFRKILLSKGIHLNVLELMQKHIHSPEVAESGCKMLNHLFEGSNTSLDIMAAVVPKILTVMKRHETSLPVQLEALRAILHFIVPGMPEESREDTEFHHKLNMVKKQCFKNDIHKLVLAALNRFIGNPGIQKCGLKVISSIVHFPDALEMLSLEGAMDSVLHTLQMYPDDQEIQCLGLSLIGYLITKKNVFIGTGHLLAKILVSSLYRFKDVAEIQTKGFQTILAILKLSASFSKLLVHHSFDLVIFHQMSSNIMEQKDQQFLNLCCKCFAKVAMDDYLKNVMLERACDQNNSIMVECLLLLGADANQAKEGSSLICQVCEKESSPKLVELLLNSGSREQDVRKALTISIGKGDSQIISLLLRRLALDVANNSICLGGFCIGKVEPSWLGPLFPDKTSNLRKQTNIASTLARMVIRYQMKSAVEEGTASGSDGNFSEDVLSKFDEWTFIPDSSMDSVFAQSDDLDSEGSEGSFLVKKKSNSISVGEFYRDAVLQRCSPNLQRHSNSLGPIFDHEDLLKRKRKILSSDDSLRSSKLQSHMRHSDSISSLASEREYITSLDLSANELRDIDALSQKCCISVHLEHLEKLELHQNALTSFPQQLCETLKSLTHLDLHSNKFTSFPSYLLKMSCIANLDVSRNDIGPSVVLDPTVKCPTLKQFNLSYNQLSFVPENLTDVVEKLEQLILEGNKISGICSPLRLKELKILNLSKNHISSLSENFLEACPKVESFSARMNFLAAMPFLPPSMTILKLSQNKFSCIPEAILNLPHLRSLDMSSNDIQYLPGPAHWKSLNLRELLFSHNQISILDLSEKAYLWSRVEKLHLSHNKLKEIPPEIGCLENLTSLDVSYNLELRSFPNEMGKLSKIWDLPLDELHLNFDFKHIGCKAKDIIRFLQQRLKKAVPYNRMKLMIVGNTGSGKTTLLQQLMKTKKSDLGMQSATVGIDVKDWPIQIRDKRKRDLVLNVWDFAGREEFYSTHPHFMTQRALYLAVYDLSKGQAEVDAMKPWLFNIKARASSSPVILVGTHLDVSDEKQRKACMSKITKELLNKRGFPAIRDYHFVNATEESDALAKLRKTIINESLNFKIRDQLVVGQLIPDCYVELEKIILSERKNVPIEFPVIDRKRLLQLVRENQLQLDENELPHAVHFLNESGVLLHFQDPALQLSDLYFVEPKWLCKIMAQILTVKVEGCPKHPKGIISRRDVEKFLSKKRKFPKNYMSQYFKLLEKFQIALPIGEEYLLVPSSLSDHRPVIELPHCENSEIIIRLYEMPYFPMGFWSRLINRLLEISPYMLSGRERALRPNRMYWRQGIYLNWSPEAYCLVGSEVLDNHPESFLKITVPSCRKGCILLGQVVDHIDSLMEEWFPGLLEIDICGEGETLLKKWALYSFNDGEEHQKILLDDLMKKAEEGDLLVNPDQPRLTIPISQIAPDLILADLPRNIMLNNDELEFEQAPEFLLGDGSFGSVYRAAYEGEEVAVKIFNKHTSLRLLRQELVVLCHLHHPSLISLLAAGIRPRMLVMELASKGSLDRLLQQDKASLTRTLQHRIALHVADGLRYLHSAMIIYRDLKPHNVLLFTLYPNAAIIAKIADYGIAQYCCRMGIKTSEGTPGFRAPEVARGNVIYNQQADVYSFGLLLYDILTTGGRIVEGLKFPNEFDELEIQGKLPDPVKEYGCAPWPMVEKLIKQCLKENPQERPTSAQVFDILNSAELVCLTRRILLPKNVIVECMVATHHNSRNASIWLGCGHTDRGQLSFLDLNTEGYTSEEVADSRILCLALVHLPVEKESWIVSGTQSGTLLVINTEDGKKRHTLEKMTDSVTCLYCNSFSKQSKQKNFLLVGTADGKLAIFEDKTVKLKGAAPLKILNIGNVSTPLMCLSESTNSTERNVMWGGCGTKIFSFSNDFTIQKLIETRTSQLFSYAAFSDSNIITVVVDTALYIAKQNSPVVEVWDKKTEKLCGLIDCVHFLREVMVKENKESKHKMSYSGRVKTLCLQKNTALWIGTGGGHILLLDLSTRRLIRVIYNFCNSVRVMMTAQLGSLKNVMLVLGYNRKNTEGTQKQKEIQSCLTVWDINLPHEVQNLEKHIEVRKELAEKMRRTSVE

The molecule `Cc1[nH]c(/C=C2\C(=O)Nc3ccccc32)c(C)c1CCC(=O)O` [Compound 12] came in with an IC50 of about 1000 nM.
